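Test compounds were applied to cells in 96-well plates for 48 hours at 5 doses. Abbreviation: GI50, concentration required for 50% inhibition of growth.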 Activity calls are given as the source filed them. Cut-off read from the data, not from the text of the source: active = GI50 up to about 1.1 µM and inactive = higher.
How the values were obtained:
Assay in all cases: NCI anticancer screen, dose series, 48 h
BT-549 = system: BT-549
CAKI-1 = system: CAKI-1
HCT-15 = system: HCT-15
HOP-62 = system: HOP-62
HT-29 = system: HT-29
IGROV-1 = system: IGROV-1
KM12 = system: KM12
LOX IMVI = system: LOX IMVI
OVCAR-5 = system: OVCAR-5
RPMI-8226 = system: RPMI-8226
SF-539 = system: SF-539
SK-MEL-2 = system: SK-MEL-2
SK-OV-3 = system: SK-OV-3
SN12C = system: SN12C
T47D = system: T47D
ACHN = system: ACHN
OVCAR-3 = system: OVCAR-3
SF-295 = system: SF-295
SNB-19 = system: SNB-19

SMILES	GI50 (BT-549)	GI50 (CAKI-1)	GI50 (HCT-15)	GI50 (HOP-62)	GI50 (HT-29)	GI50 (IGROV-1)	GI50 (KM12)	GI50 (LOX IMVI)	GI50 (OVCAR-5)	GI50 (RPMI-8226)	GI50 (SF-539)	GI50 (SK-MEL-2)	GI50 (SK-OV-3)	GI50 (SN12C)	GI50 (T47D)	GI50 (ACHN)	GI50 (OVCAR-3)	GI50 (SF-295)	GI50 (SNB-19)
O=C(O)CCCOc1cc(-c2ccccc2F)nc2cc3c(cc12)OCO3	29.8 µM (inactive)	9.64 µM (inactive)	27.9 µM	4.01 µM (inactive)	4.54 µM (inactive)	2.58 µM (inactive)	4.19 µM (inactive)	4.51 µM (inactive)	8.32 µM (inactive)	3.73 µM (inactive)	3.4 µM (inactive)	4.99 µM (inactive)	6.11 µM (inactive)	19.3 µM (inactive)	> 100 µM (inactive)	–	–	–	–
Cc1cc(C(C)(C)C)cc(CNC2CCCCC2)c1O	16.3 µM (inactive)	16.4 µM (inactive)	16.6 µM	20.9 µM (inactive)	17.3 µM (inactive)	13.8 µM (inactive)	19.9 µM (inactive)	16 µM (inactive)	16.2 µM (inactive)	17.5 µM (inactive)	18.2 µM (inactive)	17.7 µM (inactive)	20 µM (inactive)	15.8 µM (inactive)	14.8 µM (inactive)	17.1 µM (inactive)	15.6 µM (inactive)	16 µM (inactive)	16.6 µM (inactive)
O=C(c1ccc(Cl)cc1)N(Cc1cccnc1)C(=S)N(Cc1cccnc1)C(=O)c1ccc(Cl)cc1	23.7 µM (inactive)	42.4 µM (inactive)	33.9 µM	50.7 µM (inactive)	26.1 µM (inactive)	–	35.4 µM (inactive)	22 µM (inactive)	36.7 µM (inactive)	13.2 µM (inactive)	23 µM (inactive)	23 µM (inactive)	> 100 µM (inactive)	18.6 µM (inactive)	57.4 µM (inactive)	36.1 µM (inactive)	34 µM (inactive)	43.3 µM (inactive)	41.5 µM (inactive)
CCOC(=O)C1OC(C2(C)OC3(OC4(C=CC3O)OC(C(C)C(=O)C(C)C(O)C(C)CC(C)c3c(Cl)cc(C)c(O)c3C(=O)O)C(C)CC4C)C(C)C2OC)CC1O (configuration not stated)	2.08 µM (inactive)	0.752 µM (active)	0.453 µM	0.0535 µM (active)	0.34 µM (active)	2.1 µM (inactive)	1.28 µM (inactive)	0.413 µM (active)	2.69 µM (inactive)	0.54 µM (active)	0.65 µM (active)	0.493 µM (active)	0.177 µM (active)	0.207 µM (active)	0.955 µM (active)	0.441 µM (active)	0.45 µM (active)	0.257 µM (active)	0.249 µM (active)
CCOc1nc2c(N3CCCC3)nc(N3CCNCC3)nc2nc1NCc1ccccc1	1.61 µM (inactive)	1.85 µM (inactive)	1.63 µM	1.05 µM (active)	0.83 µM (active)	1.19 µM (inactive)	1.34 µM (inactive)	1.36 µM (inactive)	4.14 µM (inactive)	1.39 µM (inactive)	1.52 µM (inactive)	1.66 µM (inactive)	1.57 µM (inactive)	1.5 µM (inactive)	1.46 µM (inactive)	1.58 µM (inactive)	0.887 µM (active)	1.76 µM (inactive)	1.51 µM (inactive)
FC(F)(F)c1ccc2c(-c3cc[nH]c3)ccnc2c1	22.6 µM (inactive)	31.4 µM (inactive)	> 100 µM	35.5 µM (inactive)	21.4 µM (inactive)	39.5 µM (inactive)	31.8 µM (inactive)	19.4 µM (inactive)	44.9 µM (inactive)	34.2 µM (inactive)	37.8 µM (inactive)	> 100 µM (inactive)	> 100 µM (inactive)	41 µM (inactive)	> 100 µM (inactive)	31.8 µM (inactive)	27.4 µM (inactive)	30 µM (inactive)	17.5 µM (inactive)
Cc1ccc(S(=O)(=O)c2scc(-c3ccccc3)c2C)cc1	98.6 µM (inactive)	> 100 µM (inactive)	> 100 µM	> 100 µM (inactive)	> 100 µM (inactive)	> 100 µM (inactive)	> 100 µM (inactive)	64.3 µM (inactive)	–	44.2 µM (inactive)	61 µM (inactive)	62.8 µM (inactive)	> 100 µM (inactive)	> 100 µM (inactive)	36.5 µM (inactive)	67.6 µM (inactive)	77.3 µM (inactive)	42.8 µM (inactive)	> 100 µM (inactive)
O=C1C2=C(CC3=C(C2)CS(=O)(=O)C3)C(=O)C2=C1CC1=C(C2)CS(=O)(=O)C1	18.5 µM (inactive)	36 µM (inactive)	34.1 µM	20.5 µM (inactive)	8.59 µM (inactive)	15.4 µM (inactive)	> 19.7 µM (inactive)	14.3 µM (inactive)	43.4 µM (inactive)	28.6 µM (inactive)	36.3 µM (inactive)	32.4 µM (inactive)	38.5 µM (inactive)	15.3 µM (inactive)	2.34 µM (inactive)	36.3 µM (inactive)	3.35 µM (inactive)	26.7 µM (inactive)	17.7 µM (inactive)
O=[N+]([O-])C(=C(Nc1ccccc1)Nc1ccccc1)/C(Cl)=C(\Cl)[N+](=O)[O-]	3.71 µM (inactive)	1.61 µM (inactive)	2.7 µM	10.3 µM (inactive)	3.27 µM (inactive)	–	3.98 µM (inactive)	2.92 µM (inactive)	8.13 µM (inactive)	3.15 µM (inactive)	1.84 µM (inactive)	9.84 µM (inactive)	20.3 µM (inactive)	2.48 µM (inactive)	2.02 µM (inactive)	2.61 µM (inactive)	2.82 µM (inactive)	9.35 µM (inactive)	12.9 µM (inactive)
CC1(CCCC2(C)CCNC2=O)OCCO1 (configuration not stated)	> 10 µM (inactive)	> 10 µM (inactive)	> 10 µM	> 10 µM (inactive)	> 10 µM (inactive)	> 10 µM (inactive)	> 10 µM (inactive)	> 10 µM (inactive)	> 10 µM (inactive)	> 10 µM (inactive)	> 10 µM (inactive)	> 10 µM (inactive)	> 10 µM (inactive)	> 10 µM (inactive)	> 10 µM (inactive)	> 10 µM (inactive)	> 10 µM (inactive)	> 10 µM (inactive)	> 10 µM (inactive)
CN(C)CCN1C(=O)CC[C@@]2(C)C1=CC[C@@H]1[C@@H]2CC[C@@]2(C)[C@H]1CC[C@]2(C)O	> 100 µM (inactive)	> 100 µM (inactive)	> 100 µM	> 100 µM (inactive)	39.8 µM (inactive)	> 100 µM (inactive)	> 100 µM (inactive)	> 100 µM (inactive)	> 100 µM (inactive)	> 100 µM (inactive)	> 100 µM (inactive)	> 100 µM (inactive)	> 100 µM (inactive)	> 100 µM (inactive)	> 100 µM (inactive)	> 100 µM (inactive)	> 100 µM (inactive)	> 100 µM (inactive)	> 100 µM (inactive)

Reference: ChEMBL document CHEMBL1201862, “PubChem BioAssay data set” (2004)
